Like-named read-outs stand apart in the source and are kept apart here.
Tests used:
hPEPT1 [1] = target: T1, hPEPT1 (Homo sapiens, UniProt P46059); experiment: [3H]Gly-Sar uptake inhibition in Caco-2 cells; assay type: cell-based
T1 sequence (P46059 1-708): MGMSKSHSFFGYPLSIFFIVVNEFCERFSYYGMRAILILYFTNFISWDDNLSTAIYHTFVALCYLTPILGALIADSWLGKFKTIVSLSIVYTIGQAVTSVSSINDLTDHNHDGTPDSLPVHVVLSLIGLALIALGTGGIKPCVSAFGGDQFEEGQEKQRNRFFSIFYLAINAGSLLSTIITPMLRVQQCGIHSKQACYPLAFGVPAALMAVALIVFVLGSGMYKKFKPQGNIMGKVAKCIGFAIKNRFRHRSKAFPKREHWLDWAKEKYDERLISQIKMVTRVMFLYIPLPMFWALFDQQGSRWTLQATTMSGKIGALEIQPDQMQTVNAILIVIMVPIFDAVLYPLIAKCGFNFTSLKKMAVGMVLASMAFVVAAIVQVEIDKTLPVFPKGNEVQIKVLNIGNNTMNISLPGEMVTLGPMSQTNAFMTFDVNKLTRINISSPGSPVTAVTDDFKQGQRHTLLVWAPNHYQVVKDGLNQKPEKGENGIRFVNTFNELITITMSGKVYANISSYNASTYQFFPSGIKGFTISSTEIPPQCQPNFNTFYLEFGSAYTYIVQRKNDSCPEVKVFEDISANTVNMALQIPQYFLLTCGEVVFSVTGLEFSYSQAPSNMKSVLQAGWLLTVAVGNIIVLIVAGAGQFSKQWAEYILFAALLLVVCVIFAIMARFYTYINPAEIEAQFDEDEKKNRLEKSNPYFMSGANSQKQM
Procedure: The affinity of zanamivir, GOC, 3-hydroxyphenylglycine (3-HPG) and prodrugs thereof for particular transporters is evaluated using [^3H]Gly-Sar uptake inhibition in Caco-2 cells and in HeLa/hPEPT1 cells. Valacyclovir, a known substrate of hPEPT1, was used as positive control (Table 1). […] The valyl and isoleucyl prodrugs of zanamivir, GOC, and 3-HPG have higher affinity for hPEPT1 than the parent compounds.

hPEPT1 [2] = target: T1, hPEPT1; experiment: [3H]Gly-Sar uptake inhibition in HeLa/hPEPT1 cells; assay type: cell-based; set-up: expressed in transfected cells; host or cells: HeLa
[3] = Permeability in rat perfused jejunum; assay type: in vivo
Excerpt: Improved permeability of prodrugs Zan-Val, GOC-Val, and 3-HPG-Ile compared to the parent compounds is observed in the rat perfused jejunum, as shown in FIG. 3.

[4] = AUC and bioavailability of GOC and GOC prodrugs in fasted rats (IV or duodenal injection); conditions: for AUC0-4 hr, Prodrug / AUC0-4 hr, Total AUC / AUC0-4 hr, GOC / % F: rat
Procedure: 10 mg-eq/kg of GOC or GOC prodrugs were directly injected to duodenum segment of fasted rats. […] Appropriate volume of blood samples was taken from the jugular vein at the predetermined time points.
Rat plasma samples were analyzed for GOC prodrug and GOC using LCMSMS following solid phase extraction sampling preparation. A reverse phase solid-phase cartridge (HLB, 30 mg/1 cc, Waters) was activated with 1.0 mL of methanol and equilibrated with 1.0 mL of water. A 250 ul aliquot of rat plasma was acidified with 250 uL of 1% TFA solution and loaded on to the cartridges. After washing with 1.0 ml water, the compounds are eluted with 1 ml of 2% acetic acid solution. The eluted solvent was evaporated under nitrogen stream in TurboVap and the residue was reconstituted in 250 ul of mobile phase.
Samples were analyzed using a LC/MS/MS system (Micromass Quattro II, HP 1100). The HPLC system consisted of a HP1100 system (Hewlett Packard, CA). 10 ul of sample was separated with a C18 column (2.1×150 mm) using a mobile phase of 10-30% acetonitrile:water containing 0.1% formic acid. Quattro II triple quadrupole mass spectrometer (Micromass, Beverly, Mass.) interfaced with the HPLC via electropray source was used for the mass analysis and detection. The data acquisition software was MassLynx (version 4.0). Calibration curves were constructed by weighted (1/x) least square regression of peak area versus concentrations of the calibration standards.
Bioavailability calculation is based on the AUC0-4 hrs.

[5] = cited from earlier work; for bioavailability: species not stated
[6] = tested on: influenza virus neuraminidase; conditions: read-out: IC50, influenza virus neuraminidase; cited from earlier work
[7] = 10 mg-eq/kg oral gavage to rats; cited from earlier work
[8] = Hydrolysis of prodrugs in buffer over pH 1.2-7.4 at 37° C.; assay type: physicochemical; conditions: pH range 1.2-7.4, 37° C.
Procedure: The hydrolysis of prodrugs of the present invention in buffer was studied over the pH range 1.2-7.4 at 37° C.

VACVase = target: T2, VACVase (Homo sapiens, UniProt Q86WA6); experiment: Hydrolysis of prodrugs by VACVase (Michaelis-Menten kinetics)
T2 sequence (Q86WA6 38-291): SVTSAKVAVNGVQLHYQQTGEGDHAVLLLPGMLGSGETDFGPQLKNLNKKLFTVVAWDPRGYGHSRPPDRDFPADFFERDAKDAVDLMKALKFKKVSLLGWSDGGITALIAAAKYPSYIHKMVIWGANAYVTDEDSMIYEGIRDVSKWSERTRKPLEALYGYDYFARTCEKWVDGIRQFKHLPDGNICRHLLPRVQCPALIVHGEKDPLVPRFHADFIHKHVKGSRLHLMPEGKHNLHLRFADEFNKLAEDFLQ

[9] = substrate: CC(C)[C@H](N)C(=O)OCCOCn1cnc2c(=O)[nH]c(N)nc21; experiment: purified protein, by the assay type; conditions: 25.0 °C
[10] = HeLa/hPEPT1 cells, mean ± sd, n = 2, read-out: IC50 of [3H]Gly-Sar uptake inhibition
[11] = duodenal administration (OGI) 10 mg-eq/kg

In the case of `NC(C(=O)O)c1cccc(O)c1` (stereo not shown) [3-HPG, 3-hydroxyphenylglycine], the “affinity for the transporter” value (hPEPT1 [1]) is reported as “poor affinity”, the “affinity for the transporter” value (hPEPT1 [2]; HeLa/hPEPT1 cells) is reported as “poor affinity” and the IC50 (hPEPT1 [2]; [10]) is reported as over 5000 µM. The “jejunal permeability” value [3] was “very low, essentially zero permeability”.

With `CCC(CC)O[C@@H]1C=C(C(=O)OCCNC(=O)[C@@H](N)C(C)C)C[C@H](NC(=N)N)[C@H]1NC(C)=O` [GOC GlyOH L-Val] the “species found in plasma after dosing” value ([4]; rat plasma, OGI 10 mg-eq/kg) was “Only a trace amount of GOC is detected in the plasma”, the “AUC0-4 hr, Prodrug” value [4, 11] was 386 ± 406 (ng/mL) · hrs and the “AUC0-4 hr, Total AUC” value [4, 11] was 401 ± 419 (ng/mL) · hrs.

In the case of `CCC(CC)O[C@@H]1C=C(C(=O)OCC(C)OC(=O)[C@@H](N)C(C)C)C[C@H](NC(=N)N)[C@H]1NC(C)=O` (stereo partly drawn) [GOC PG L-Val], the “AUC0-4 hr, Prodrug” value [4, 11] is reported as 17 ± 12 (ng/mL) · hrs and the “AUC0-4 hr, Total AUC” value [4, 11] is reported as 116 ± 61 (ng/mL) · hrs.

For `CCC(CC)O[C@@H]1C=C(C(=O)O)C[C@H](NC(=N)N)[C@H]1NC(C)=O` [GOC, guanidino oseltamivir carboxylate], the bioavailability [5] is given as about 4.0%, the IC50 [6] is given as 0.0009 µM and the “affinity for the transporter” value (hPEPT1 [1]) is given as “poor affinity”. For the same molecule, the “affinity for the transporter” value (hPEPT1 [2]; HeLa/hPEPT1 cells) was “poor affinity”, the IC50 (hPEPT1 [2]; [10]) was 6600 ± 3900 µM and the “% F” value [7] was 4.0%. For the same molecule, the Cmax [7] was 60 ng/mL, the “jejunal permeability” value [3] was “very low, essentially zero permeability” and the “AUC0-4 hr, GOC” value ([4]; IV injection 1 mg/kg) was 385 ± 167 (ng/mL) · hrs. The “AUC0-4 hr, Total AUC” value ([4]; IV injection 1 mg/kg) was 385 ± 167 (ng/mL) · hrs, the “% F” value ([4]; IV injection 1 mg/kg (reference)) was 100.0% and the “AUC0-4 hr, GOC” value [4, 11] was 265 ± 91 (ng/mL) · hrs. The “AUC0-4 hr, Total AUC” value [4, 11] was 265 ± 91 (ng/mL) · hrs and the “% F” value ([4]; duodenal administration (OGI) 10 mg-eq/kg, based on AUC0-4 hrs) was 4.6%.

For `CCC(CC)O[C@@H]1C=C(C(=O)OC(C)OC(=O)[C@@H](N)[C@@H](C)CC)C[C@H](NC(=N)N)[C@H]1NC(C)=O` (stereo partly shown) [GOC-Ile, isoleucine ethoxyester of guanidine oseltamivir], the IC50 (hPEPT1 [2]; [10]) was 450 ± 180 µM and the “hydrolysis behaviour in buffer” value [8] was “pH dependent hydrolysis”.

For `CCC(CC)O[C@@H]1C=C(C(=O)OC(C)OC(=O)[C@@H](N)C(C)C)C[C@H](NC(=N)N)[C@H]1NC(C)=O` (stereo partly shown) [GOC-Val, valine ethoxyester of guanidine oseltamivir], the IC50 (hPEPT1 [2]; [10]) was 190 ± 10 µM, the “jejunal permeability” value [3] was “high permeability, higher than that of metoprolol” and the “hydrolysis behaviour in buffer” value [8] was “pH dependent hydrolysis”. For the same molecule, the Kcat (VACVase; hydrolysis by VACVase, 25° C.) was 8.7 s⁻¹, the Km (VACVase; hydrolysis by VACVase, 25° C.) was 2370 µM and the Vmax (VACVase; hydrolysis by VACVase, 25° C.) was 19.4 nmol/min/μg of VACVase.

In the case of `CCC(CC)O[C@@H]1C=C(C(=O)O)C[C@H](N)[C@H]1NC(C)=O` [GS4071, oseltamivir carboxylate], the bioavailability [5] is listed as about 4.0% and the Cmax [7] is listed as 30 ng/mL.

For `CCOC(=O)C1=C[C@@H](OC(CC)CC)[C@H](NC(C)=O)[C@@H](N)C1` [GS4104, oseltamivir], the oral bioavailability ([5]; in rats, mice, dogs and ferrets) is listed as 11-73%, the “% F” value [7] is listed as 35% and the Cmax [7] is listed as 47 ng/mL.

In the case of `CCOC(=O)C1=C[C@@H](OC(CC)CC)[C@H](NC(C)=O)[C@@H](NC(=N)N)C1` [GS4109], the bioavailability [5] is given as “approximately 2%” and the Cmax [7] is given as 30 ng/mL.

For `CC(C)[C@H](N)C(=O)OCCOCn1cnc2c(=O)[nH]c(N)nc21` [Valcyclovir, Valacyclovir], the IC50 (hPEPT1 [2]) was 1880 ± 510 µM and the Vmax (VACVase) was 280 nmol/min/μg of VACVase.

For `CC[C@H](C)[C@H](N)C(=O)OC(C)OC(=O)C1=C[C@H](NC(=N)N)[C@@H](NC(C)=O)[C@H]([C@H](O)[C@H](O)CO)O1` (stereo partly shown) [Zan-Ile, zanamivir ethoxyisoleucine ester], the IC50 (hPEPT1 [2]; [10]) was 3040 ± 800 µM.

In the case of `CC(=O)N[C@H]1[C@H]([C@H](O)[C@H](O)CO)OC(C(=O)OC(C)OC(=O)[C@@H](N)C(C)C)=C[C@@H]1NC(=N)N` (stereo partly shown) [Zan-Val, valine ethoxyester of zanamivir], the IC50 (hPEPT1 [2]; [10]) is reported as 1950 ± 190 µM, the “jejunal permeability” value [3] is reported as “high permeability, higher than that of metoprolol” and the “hydrolysis behaviour in buffer” value [8] is reported as “pH dependent hydrolysis”. For the same molecule, the Kcat (VACVase; hydrolysis by VACVase, 25° C.) was 21.2 s⁻¹, the Km (VACVase; hydrolysis by VACVase, 25° C.) was 1550 µM and the Vmax (VACVase; hydrolysis by VACVase, 25° C.) was 47.2 nmol/min/μg of VACVase.

For `CC(=O)N[C@H]1[C@H]([C@H](O)[C@H](O)CO)OC(C(=O)O)=C[C@@H]1N=C(N)N` [Zanamivir, zanamivir], the absolute oral availability ([5]; in vivo, po) is given as about 2%, the “affinity for the transporter” value (hPEPT1 [1]) is given as “poor affinity” and the “affinity for the transporter” value (hPEPT1 [2]; HeLa/hPEPT1 cells) is given as “poor affinity”. The IC50 (hPEPT1 [2]; [10]) was over 30000 µM, the “% F” value [7] was 3.7% and the Cmax [7] was 60 ng/mL. For the same molecule, the “jejunal permeability” value [3] was “very low, essentially zero permeability”.

In the case of `CCC(CC)[C@H](NC(C)=O)[C@@H]1[C@H](O)[C@@H](C(=O)O)C[C@H]1N=C(N)N` [peramivir], the oral bioavailability ([5]; peramivir, clinical trials context) is given as at most 3%.

B1: VACVase (Homo sapiens) (protein)
chain: T2 sequence (Q86WA6 38-291)
In the case of B1, the Km [9] is reported as 590 µM, the kcat [9] is reported as 126 s⁻¹ and the kcat/Km [9] is reported as 213000 M⁻¹ s⁻¹.
